Laboratory results as given in patent US12528802B2, “Heterocyclic compound” (Takeda Pharmaceutical Company Limited, priority 2019, dated 2026).

molecular target: T1, glucosylceramide synthase (Homo sapiens, UniProt Q16739); test: Glucosylceramide synthase (GCS) enzyme assay, microsome fraction, C8 glucosylceramide quantified by Rapidfire MS/MS; assay type: biochemical; details: test compound 10 μM; 1.7 μM UDP-glucose, 3 μM C8 ceramide; room temperature 60 min
T1 construct: made in house; host or cells: Expi293F cells (transient expression, pcDNA3.3-TOPO vector); microsome fraction used as enzyme source
T1 sequence (Q16739 1-394): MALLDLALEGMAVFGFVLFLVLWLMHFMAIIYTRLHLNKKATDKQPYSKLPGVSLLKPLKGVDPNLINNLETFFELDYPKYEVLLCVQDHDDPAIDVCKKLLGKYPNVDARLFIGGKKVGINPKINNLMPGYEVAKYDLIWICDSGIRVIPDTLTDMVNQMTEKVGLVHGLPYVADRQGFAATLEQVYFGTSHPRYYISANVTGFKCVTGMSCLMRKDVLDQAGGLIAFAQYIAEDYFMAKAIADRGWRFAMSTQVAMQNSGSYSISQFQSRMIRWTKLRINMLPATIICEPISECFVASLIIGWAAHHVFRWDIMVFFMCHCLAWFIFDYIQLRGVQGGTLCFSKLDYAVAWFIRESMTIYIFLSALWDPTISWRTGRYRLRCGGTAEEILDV
Procedure: Glucosylceramide Synthase (GCS) Assay
In enzyme assay, a microsome fraction obtained by transient expression by Expi293F™ cells (catalog number: A14527, Thermo Fisher Scientific) was used as a glucosylceramide synthase source. Liposomal C8 ceramide and UDP-glucose were used as substrates. […] After the enzymatic reaction, the analysis was performed with Rapidfire MS/MS (API-4000™, SCIEX), and C8 glucosylceramide was quantified to evaluate the inhibitory activity of the test compound against glucosylceramide synthase activity.
PcDNA3.3TOPO vector (catalog number: K830001, Thermo Fisher Scientific) into which the human GCS gene was inserted was introduced into Expi293F™ Cells (catalog number: A14527, Thermo Fisher Scientific) by using ExpiFectamine™ 293 Transfection Kit (catalog number: A14525, Thermo Fisher Scientific). The cultured cells were dissolved in D-PBS (catalog number: 048-29805, Fuji Film Wako Pure Chemical Industries, Ltd.) containing 1 mM PMSF, and the solution was allowed to stand on ice for 30 minutes, and then subjected to cell disruption (homogenized). The disruption solution was centrifuged at 10,000×g for 20 minutes at 4° C., and the obtained supernatant was centrifuged at 142,400×g for 60 minutes at 4° C. The obtained precipitate was resuspended in a D-PBS solution containing 1 mM PMSF, and homogenized again to prepare as a microsome fraction. Protein quantification was performed by the CBB method.
A 1 mM compound solution prepared by dissolving the test compound in DMSO was added to a 384-well plate by 100 nL so that the final concentration of the test compound was 10 μM. Next, a substrate solution consisting of 3.4 μM UDP-glucose and 6 μM C8 ceramide was added by 5 μL, followed by an enzyme solution consisting of a 25 μg/mL microsome fraction by 5 μL. C8 ceramide was prepared from liposomes composed of 15 mol % C8 ceramide and 85 mol % dioleoyl phosphatidylcholine (1,2-dioleoyl-sn-glycero-3-phosphocholine: DOPC). The enzymatic reaction was carried out in a solution consisting of 20 mM tris-hydrochloric acid buffer (pH 7.5), 0.01% Tween 20, 0.01% bovine serum albumin and 1 mM dithiothreitol at room temperature for 60 min. Then, a solution consisting of 75% isopropanol and 1% formic acid containing 0.25 μM N-Octadecanoyl-D35-psichosine (catalog number: 1914, Matreya) as an internal standard substance was added by 60 μL to stop the enzymatic reaction. 5 μL of the centrifugal supernatant of the obtained reaction product was analyzed by Rapidfire MS/MS (Agilent Technologies) using API-4000™ (SCIEX), and the C8 glucosylceramide was quantified to evaluate the inhibitory activity of the test compound against the glucosylceramide synthase activity. The inhibitory activity of the test compound was evaluated when the C8 glucosylceramide level in the enzyme-free solution was considered as 100% inhibitory and the enzyme activity of the DMSO group in the absence of the compound was considered as 0% inhibitory.

Row | SMILES | GCS enzyme inhibitory rate at 10 μM (%) (% of control)
1 | O=C1c2ccnc(-c3ccc(F)cc3OCC(F)(F)F)c2CN1c1ccc(C2(O)CCOC2)c(F)c1 (racemic) [Example 235, rac-2-[3-fluoro-4-(3-hydroxyoxolan-3-yl)phenyl]-4-[4-fluoro-2-(2,2,2-trifluoroethoxy)phenyl]-2,3-dihydro-1H-pyrrolo[3,4-c]pyridin-1-one] | 97

same assay, conditions: test compound 10 μM; 1.7 μM UDP-glucose, 3 μM C8 ceramide; room temperature 60 min; read-out: GCS enzyme inhibitory rate at 10 μM (%) (% of control)

Row | SMILES | inhibition at 10 µM [%]
2 | O=C1c2ccnc(-c3ccccc3OCC(F)(F)F)c2CN1c1ccc(C(O)C2CC2)nc1 (racemic) [Example 317, rac-2-{6-[cyclopropyl(hydroxy)methyl]pyridin-3-yl}-4-[2-(2,2,2-trifluoroethoxy)phenyl]-2,3-dihydro-1H-pyrrolo[3,4-c]pyridin-1-one] | 99
3 | O=C(c1ccc(N2Cc3c(ccnc3-c3ccc(F)cc3OCC(F)(F)F)C2=O)cc1)N1CCC1 [Example 166, 2-[4-(azetidine-1-carbonyl)phenyl]-4-[4-fluoro-2-(2,2,2-trifluoroethoxy)phenyl]-2,3-dihydro-1H-pyrrolo[3,4-c]pyridin-1-one] | 87
4 | CC(C)(F)c1cc2c(c(-c3ccc(F)cc3OCC(F)(F)F)n1)CN(c1ccc(F)cc1)C2=O [Example 385, 2-(4-fluorophenyl)-6-(2-fluoropropan-2-yl)-4-[4-fluoro-2-(2,2,2-trifluoroethoxy)phenyl]-2,3-dihydro-1H-pyrrolo[3,4-c]pyridin-1-one] | 99
5 | COc1ccccc1-c1nccc2c1CN(c1ccc(C)cc1)C2=O [Example 23, 4-(2-methoxyphenyl)-2-(4-methylphenyl)-2,3-dihydro-1H-pyrrolo[3,4-c]pyridin-1-one] | 99
6 | N#CC1(c2ccc(N3Cc4c(ccnc4-c4ccccc4OCC(F)F)C3=O)cc2)CC1 [Example 304, 1-(4-{4-[2-(2,2-difluoroethoxy)phenyl]-1-oxo-1,3-dihydro-2H-pyrrolo[3,4-c]pyridin-2-yl}phenyl) cyclopropane-1-carbonitrile] | 99
7 | CC(C)(O)Cc1ccc(N2Cc3c(ccnc3-c3ccccc3OCC(F)(F)F)C2=O)cc1 [Example 229, 2-[4-(2-hydroxy-2-methylpropyl)phenyl]-4-[2-(2,2,2-trifluoroethoxy)phenyl]-2,3-dihydro-1H-pyrrolo[3,4-c]pyridin-1-one] | 99
8 | O=C1c2ccnc(-c3ccccc3OCC(F)(F)F)c2CN1c1ccc(C(O)(C(F)(F)F)C(F)(F)F)cc1 [Example 260, 2-[4-(1,1,1,3,3,3-hexafluoro-2-hydroxypropan-2-yl)phenyl]-4-[2-(2,2,2-trifluoroethoxy)phenyl]-2,3-dihydro-1H-pyrrolo[3,4-c]pyridin-1-one] | 100
9 | O=C1c2ccnc(-c3ccccc3OCC(F)(F)F)c2CN1c1ccc(O)cc1 [Example 347, 2-(4-hydroxyphenyl)-4-[2-(2,2,2-trifluoroethoxy)phenyl]-2,3-dihydro-1H-pyrrolo[3,4-c]pyridin-1-one] | 76
10 | Cn1cc2c(c(-c3ccccc3OCC(F)(F)F)c1=O)CN(c1ccc(OCC(C)(C)O)cc1)C2=O [Example 350, 2-[4-(2-hydroxy-2-methylpropoxy)phenyl]-5-methyl-7-[2-(2,2,2-trifluoroethoxy)phenyl]-1H-pyrrolo[3,4-c]pyridine-3,6(2H,5H)-dione] | 100
11 | CC(O)c1cc2c(c(-c3ccccc3OCC(F)(F)F)n1)CN(c1ccc(OCC(F)(F)F)cc1)C2=O (racemic) [Example 341, rac-6-(1-hydroxyethyl)-4-[2-(2,2,2-trifluoroethoxy)phenyl]-2-[4-(2,2,2-trifluoroethoxy)phenyl]-2,3-dihydro-1H-pyrrolo[3,4-c]pyridin-1-one] | 100
12 | O=C1c2ccnc(-c3ccccc3OCC(F)(F)F)c2CN1c1ccc(C2(O)CCC2)cc1 [Example 191, 2-[4-(1-hydroxycyclobutyl)phenyl]-4-[2-(2,2,2-trifluoroethoxy)phenyl]-2,3-dihydro-1H-pyrrolo[3,4-c]pyridin-1-one] | 100
13 | O=C1c2ccc(=O)n(-c3ccccc3OCC(F)(F)F)c2CN1c1ccc(OC(F)(F)F)cc1 [Example 149, 1-[2-(2,2,2-trifluoroethoxy)phenyl]-6-[4-(trifluoromethoxy)phenyl]-6,7-dihydro-1H-pyrrolo[3,4-b]pyridine-2,5-dione] | 99
14 | O=C1c2ccnc(-c3ccccc3OCC(F)(F)F)c2CN1c1ccc(F)cc1 [Example 42, 2-(4-fluorophenyl)-4-[2-(2,2,2-trifluoroethoxy)phenyl]-2,3-dihydro-1H-pyrrolo[3,4-c]pyridin-1-one] | 94
15 | CC(C)(O)c1ccc(N2Cc3c(cc(C(F)F)nc3-c3ccccc3OCC(F)(F)F)C2=O)cc1 [Example 327, 6-(difluoromethyl)-2-[4-(2-hydroxypropan-2-yl)phenyl]-4-[2-(2,2,2-trifluoroethoxy)phenyl]-2,3-dihydro-1H-pyrrolo[3,4-c]pyridin-1-one] | 100
16 | O=C1c2ccnc(-c3ccc(F)cc3OCC3CC3)c2CN1c1ccc(OC(F)F)cc1 [Example 129, 4-[2-(cyclopropylmethoxy)-4-fluorophenyl]-2-[4-(difluoromethoxy)phenyl]-2,3-dihydro-1H-pyrrolo[3,4-c]pyridin-1-one] | 99
17 | O=C1c2ccnc(-c3ccc(F)cc3OCC(F)(F)F)c2CN1c1ccc(OC2CCOCC2)nc1 [Example 167, 4-[4-fluoro-2-(2,2,2-trifluoroethoxy)phenyl]-2-{6-[(oxan-4-yl)oxy]pyridin-3-yl}-2,3-dihydro-1H-pyrrolo[3,4-c]pyridin-1-one] | 98
18 | CC(C)(O)c1ccc(N2Cc3c(ncnc3-c3ccc(F)cc3OCC(F)(F)F)C2=O)cc1 [Example 192, 4-[4-fluoro-2-(2,2,2-trifluoroethoxy)phenyl]-6-[4-(2-hydroxypropan-2-yl)phenyl]-5,6-dihydro-7H-pyrrolo[3,4-d]pyrimidin-7-one] | 88
19 | O=C1c2ccnc(-c3ccccc3OC(F)F)c2CN1c1ccc(OC(F)(F)F)cn1 [Example 62, 4-[2-(difluoromethoxy)phenyl]-2-[5-(trifluoromethoxy)pyridin-2-yl]-2,3-dihydro-1H-pyrrolo[3,4-c]pyridin-1-one] | 95
20 | CS(=O)(=O)c1ccc(N2Cc3c(ccnc3-c3ccc(F)cc3OCC(F)(F)F)C2=O)nc1 [Example 108, 4-[4-fluoro-2-(2,2,2-trifluoroethoxy)phenyl]-2-[5-(methanesulfonyl)pyridin-2-yl]-2,3-dihydro-1H-pyrrolo[3,4-c]pyridin-1-one] | 64
21 | CC(C)(O)c1ccc(N2Cc3c(cc(C(C)(C)F)nc3-c3ccccc3OCC(F)(F)F)C2=O)cc1 [Example 384, 6-(2-fluoropropan-2-yl)-2-[4-(2-hydroxypropan-2-yl)phenyl]-4-[2-(2,2,2-trifluoroethoxy)phenyl]-2,3-dihydro-1H-pyrrolo[3,4-c]pyridin-1-one] | 100
22 | COc1ccccc1-n1ncc2c1CN(c1ccc(F)cc1)C2 [Example 183, 5-(4-fluorophenyl)-1-(2-methoxyphenyl)-1,4,5,6-tetrahydropyrrolo[3,4-c]pyrazole] | 83
23 | O=C1c2ccnc(-c3ccc(F)cc3OCC3(F)CC3)c2CN1c1ccc(OC(F)F)cc1 [Example 128, 2-[4-(difluoromethoxy)phenyl]-4-{4-fluoro-2-[(1-fluorocyclopropyl)methoxy]phenyl}-2,3-dihydro-1H-pyrrolo[3,4-c]pyridin-1-one] | 99
